The record followed here is paper PMC9120017, “Inhibition mechanism of the chloride channel TMEM16A by the pore blocker 1PBC” (Nature Communications, 2022).

Like-named read-outs stand apart in the source and are kept apart here.

This assay deals with T1, mouse TMEM16B (Mus musculus, UniProt Q8CFW1).
T1 construct: expressed in transfected cells; host or cells: HEK293T
T1 sequence (Q8CFW1 1-1002): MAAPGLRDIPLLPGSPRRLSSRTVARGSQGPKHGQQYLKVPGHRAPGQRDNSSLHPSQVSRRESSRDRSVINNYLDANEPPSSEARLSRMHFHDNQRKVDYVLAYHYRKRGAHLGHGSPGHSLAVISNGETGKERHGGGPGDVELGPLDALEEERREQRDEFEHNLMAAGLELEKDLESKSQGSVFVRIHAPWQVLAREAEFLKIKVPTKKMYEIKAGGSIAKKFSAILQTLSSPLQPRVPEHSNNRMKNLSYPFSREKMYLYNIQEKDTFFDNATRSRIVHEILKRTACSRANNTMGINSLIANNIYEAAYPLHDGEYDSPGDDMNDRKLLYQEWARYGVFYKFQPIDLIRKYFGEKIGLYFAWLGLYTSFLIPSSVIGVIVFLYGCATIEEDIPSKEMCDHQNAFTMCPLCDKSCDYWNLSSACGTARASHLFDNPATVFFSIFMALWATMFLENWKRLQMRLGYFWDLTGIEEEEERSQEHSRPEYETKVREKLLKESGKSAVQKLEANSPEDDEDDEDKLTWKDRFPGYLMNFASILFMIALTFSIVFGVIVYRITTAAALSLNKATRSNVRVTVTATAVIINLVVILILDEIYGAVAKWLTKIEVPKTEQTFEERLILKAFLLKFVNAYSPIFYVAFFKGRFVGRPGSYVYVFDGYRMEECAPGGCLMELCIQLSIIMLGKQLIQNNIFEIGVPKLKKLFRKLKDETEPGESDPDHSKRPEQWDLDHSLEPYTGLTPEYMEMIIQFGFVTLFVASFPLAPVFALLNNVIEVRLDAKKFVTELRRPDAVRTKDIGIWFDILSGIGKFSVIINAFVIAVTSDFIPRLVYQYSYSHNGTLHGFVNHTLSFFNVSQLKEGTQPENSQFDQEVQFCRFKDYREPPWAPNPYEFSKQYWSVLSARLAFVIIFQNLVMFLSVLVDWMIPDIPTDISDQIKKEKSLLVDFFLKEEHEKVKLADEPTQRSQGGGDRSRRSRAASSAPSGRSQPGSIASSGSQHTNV
In words: Inside-out patch recording of 1PBC block, TMEM16B. Format: cell-based. The following applies: 15 µM Ca2+; for remaining activity at 3 µM: 3 µM 1PBC; for remaining activity at 3 µM / remaining activity at 10 µM / remaining activity at 30 µM / remaining activity at 100 µM: read-out: I/Imax; for remaining activity at 10 µM: 10 µM 1PBC; for remaining activity at 30 µM: 30 µM 1PBC; for remaining activity at 100 µM: 100 µM 1PBC. On the procedure:
HEK293T cells (ATCC CRL-1573) were maintained in Dulbecco’s modified Eagle’s medium (DMEM; Sigma-Aldrich) supplemented with 10 U ml^−1 penicillin, 0.1 mg ml^−1 streptomycin (Sigma-Aldrich), 2 mM L-glutamine (Sigma-Aldrich), and 10% FBS (Sigma-Aldrich) in a humidified atmosphere containing 5% CO2 at 37 °C. HEK293S GnTI^− cells (ATCC CRL-3022) were maintained in HyClone HyCell TransFx-H medium (GE Healthcare) supplemented with 10 U ml^−1 penicillin, 0.1 mg ml^−1 streptomycin, 4 mM L-glutamine, 0.15% poloxamer 188 (Sigma-Aldrich), and 1% FBS in an atmosphere containing 5% CO2 at 185 rpm at 37 °C. The ac splice variant of mouse TMEM16A (UniProt ID: Q8BHY3), mouse TMEM16B (UniProt ID: Q8CFW1), or mouse TMEM16F (UniProt ID: Q6P9J9) bearing a 3C cleavage site, a Venus YFP, a Myc tag, and a Streptavidin-binding peptide (SBP) downstream of the open reading frame in a modified pcDNA3.1 vector (Invitrogen) were used as described previously[21],[31]. Mutations were introduced using a modified QuikChange method[58] and were verified by sequencing.
HEK293T cells were transfected with 3–4 μg DNA per 6 cm Petri dish using the calcium phosphate co-precipitation method and were used within 24–96 h after transfection. Recordings were performed on inside-out patches excised from HEK293T cells expressing the construct of interest. Patch pipettes were pulled from borosilicate glass capillaries (O.D. 1.5 mm, I.D. 0.86 mm, Sutter Instrument) and were fire-polished with a microforge (Narishige) before use. Pipette resistance was typically 3–8 MΩ when filled with the recording solutions detailed below. Seal resistance was typically 4 GΩ or higher. Voltage-clamp recordings were made using Axopatch 200B, Digidata 1550, and Clampex 10.7 (Molecular Devices). Analog signals were filtered with the in-built 4-pole Bessel filter at 10 kHz and were digitized at 20 kHz. Solution exchange was achieved using a gravity-fed system through a theta glass pipette mounted on an ultra-fast piezo-driven stepper (Siskiyou). […] All recordings were performed at 20 °C.
A symmetrical ionic condition was used throughout. Stock solution with Ca^2+-EGTA contained 150 mM NaCl, 5.99 mM Ca(OH)2, 5 mM EGTA, and 10 mM HEPES at pH 7.40. Stock solution with EGTA contained 150 mM NaCl, 5 mM EGTA, and 10 mM HEPES at pH 7.40. Free Ca^2+ concentrations were adjusted by mixing the stock solutions at the required ratios calculated using the WEBMAXC program (http://web.stanford.edu/~cpatton/webmaxcS.htm). Patch pipettes were filled with the stock solution with Ca^2+-EGTA, which has a free Ca^2+ concentration of 1 mM. 1PBC (ChemBridge) stock was reconstituted in anhydrous DMSO (Sigma-Aldrich) at 100 mM and stored at −20 °C. Working solutions with 1PBC were prepared by serial dilution. Unless otherwise stated, experiments were performed at a saturating Ca^2+ concentration as shown in Supplementary Table 1 and the primary data were corrected for current rundown as described previously[21],[25].
Concentration-response relations, obtained from the ratio of the I-V plots before and after the application of the blocker, were fitted to the Hill equation,1 I/Imax=1/1+IC50/[blocker]^h where I/Imax is the normalized current responses, IC50 defines the concentration at which inhibition is at its half-maximum, and h is the Hill coefficient.

For `N#Cc1c(C(F)(F)F)cc(O)n2c1nc1ccccc12` [1PBC], the “Block of the channel TMEM16B” value is reported as “blocks”. Also, under “+80 mV”, the remaining activity at 3 µM was 55.6%, the remaining activity at 10 µM came to 31%, the remaining activity at 30 µM was found to be 16.8% and the remaining activity at 100 µM is 7.99%. In addition, under “-80 mV”, the remaining activity at 3 µM was determined as 89.9%, the remaining activity at 10 µM was determined as 70.1%, the remaining activity at 30 µM was determined as 43.9% and the remaining activity at 100 µM is 20.5%.
